Where two headings read alike, the source gives them in different places.

For data set [1] the following is noted: cited from earlier work.
In the next data set the target is MMP-9 (Mus musculus, UniProt P41245). The experiment in a line: Peptide cleavage by recombinant MMP-9. Format: biochemical. The note with it: prinomastat added to prodrug with MMP-9, similar conditions (Figure S1).
MMP-9, sequence (P41245 108-730): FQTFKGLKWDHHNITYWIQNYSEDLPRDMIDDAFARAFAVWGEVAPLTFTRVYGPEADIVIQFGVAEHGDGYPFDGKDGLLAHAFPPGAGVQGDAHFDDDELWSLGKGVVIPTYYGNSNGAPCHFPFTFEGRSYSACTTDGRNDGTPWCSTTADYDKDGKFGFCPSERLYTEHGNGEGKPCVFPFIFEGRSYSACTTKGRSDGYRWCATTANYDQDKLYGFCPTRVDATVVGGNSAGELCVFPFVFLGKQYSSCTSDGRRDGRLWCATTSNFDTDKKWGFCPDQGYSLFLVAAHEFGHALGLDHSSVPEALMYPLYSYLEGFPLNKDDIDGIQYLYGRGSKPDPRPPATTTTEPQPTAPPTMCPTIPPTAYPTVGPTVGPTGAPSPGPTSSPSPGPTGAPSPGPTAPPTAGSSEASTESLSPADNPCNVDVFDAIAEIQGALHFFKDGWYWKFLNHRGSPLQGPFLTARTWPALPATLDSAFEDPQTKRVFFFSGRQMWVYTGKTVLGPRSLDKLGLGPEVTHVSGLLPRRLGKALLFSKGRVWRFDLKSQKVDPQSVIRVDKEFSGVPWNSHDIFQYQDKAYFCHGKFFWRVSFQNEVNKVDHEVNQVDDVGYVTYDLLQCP

Consider `CC[C@H](C)[C@H](NC(=O)CN)C(=O)NCC(=O)N[C@@H](C)C(=O)N[C@H](C(=O)N[C@@H](CC(C)C)C(=O)N[C@@H](CCCCN)C(=O)N[C@H](C(=O)N[C@@H](CC(C)C)C(=O)N[C@H](C(=O)N[C@H](C(=O)NCC(=O)N[C@@H](CC(C)C)C(=O)N1CCC[C@H]1C(=O)N[C@@H](C)C(=O)N[C@@H](CC(C)C)C(=O)N[C@H](C(=O)N[C@@H](CO)C(=O)N[C@@H](Cc1c[nH]c2ccccc12)C(=O)N[C@H](C(=O)N[C@@H](CCCCN)C(=O)N[C@@H](CCCNC(=N)N)C(=O)N[C@@H](CCCCN)C(=O)N[C@@H](CCCNC(=N)N)C(=O)N[C@@H](CCC(N)=O)C(=O)N[C@@H](CCC(N)=O)C(N)=O)[C@@H](C)CC)[C@@H](C)CC)[C@@H](C)O)[C@@H](C)O)C(C)C)C(C)C` [melittin, Melittin], for which the plasma half-life was 24 min in data set [1] (free melittin) and “over 300 minutes” in data set [1] (melittin incorporated onto perfluorocarbon nanoparticles).
As for `CC1(C)SCCN(S(=O)(=O)c2ccc(Oc3ccncc3)cc2)[C@H]1C(=O)NO` [prinomastat], on MMP-9, the “effect on prodrug cleavage by MMP-9” value is “prevented cleavage of the prodrug”.

Values taken from PMC4740973 (Bioconjugate chemistry, 2015).
